The values that follow come from PubChem BioAssay AID1996.

Converted amounts (≈) assume the structure as drawn. A value given as a limit tells only on which side of the number the result lay.

For the series the following is noted: buffer; pH 7.4; 200.0 µM.
The compound `CCOc1ccccc1C(=O)NCC(=O)OCCOc1cccc(Cl)c1` yielded a solubility (kinetic) of 34 µg/mL (≈ 90 µM).

`C=CCOc1ccc(C(=O)Nc2ccc3c(c2)n(C)c(=O)n3C)cc1` gave a kinetic solubility of 11.4 µg/mL (≈ 33.8 µM).

The compound `Cc1ccc(C)c(NC(=O)CC2Oc3ccccc3NC2=O)c1` (stereo unspecified) came in with a solubility (kinetic) of 1.1 µg/mL (≈ 3.54 µM).

The compound `O=[N+]([O-])c1c(NCCO)cc(N2CCCCC2)c2nonc12` displayed a solubility (kinetic) of 38.6 µg/mL (≈ 126 µM).

As to `CC1=Nc2cccc([N+](=O)[O-])c2NC(=O)C1`, the solubility (kinetic) was over 32.9 µg/mL.

Take `COc1ccc(C(=O)OCc2cc(=O)n3ccsc3n2)cc1F`: the solubility (kinetic) was 4 µg/mL (≈ 12 µM).

As for `O=C(CC1OCC2CCCN2C1=O)Nc1ccc([N+](=O)[O-])cc1` (stereo unspecified), the solubility (kinetic) turned out to be 45.5 µg/mL (≈ 142 µM).

The compound `CC(=O)C1=C(O)C(=O)N(c2ccc(O)cc2)C1c1ccc([N+](=O)[O-])cc1` (stereo unspecified) displayed a kinetic solubility of over 53.1 µg/mL.

Compound `Nc1ccc2nc(SCc3ccccc3F)sc2c1` displayed a kinetic solubility of 16 µg/mL (≈ 55.1 µM).

In turn, `O=C(NCCNc1ccc(Cl)cc1[N+](=O)[O-])c1ccccc1F` gave a solubility (kinetic) of 1.5 µg/mL (≈ 4.44 µM).

As for `COc1ccc(OC)c(NC(=O)COC(=O)/C=C/c2ccco2)c1`, the kinetic solubility turned out to be 10.4 µg/mL (≈ 31.4 µM).

In the case of `O=C(CNC(=O)c1ccccc1)Oc1cccc(Cl)c1`, the solubility (kinetic) is over 43.5 µg/mL.

Turning to `CCOCCCNC(=O)C1CCCN1C(=O)Nc1ccccc1[N+](=O)[O-]` (stereo unspecified), the solubility (kinetic) was over 54.7 µg/mL.

`CCCn1c(=O)c2c(nc3n2CCCN3Cc2ccccc2)n(C)c1=O` came in with a solubility (kinetic) of 17.6 µg/mL (≈ 49.8 µM).

In turn, `Cc1cccc(NC(=O)C2CC(=O)N(Cc3ccccc3)C2)n1` (stereo unspecified) had a solubility (kinetic) of over 46.4 µg/mL.

`O=C(c1ccncc1)c1ccc(NC(=O)c2cccs2)cc1` gave a kinetic solubility of 45.9 µg/mL (≈ 149 µM).

Take `COCCNC(=S)N1CCC(Cc2ccccc2)CC1`: the kinetic solubility is over 43.9 µg/mL.

Compound `CN(C)Cc1c(O)ccc2c(=O)c(-c3ccc(Cl)cc3)coc12` showed a kinetic solubility of over 49.5 µg/mL.

Turning to `CCOc1ccc2nc(NC(=O)CN3CCOCC3)sc2c1`, the kinetic solubility is over 48.2 µg/mL.

The compound `N#CCCN(C(=O)COC(=O)c1cc(=O)[nH]c2ccccc12)c1ccccc1` had a kinetic solubility of over 56.3 µg/mL.

`O=C(Nc1ccccc1)NN(C(=O)CCl)c1ccccc1`: the solubility (kinetic) is over 45.6 µg/mL.

Regarding `CCOC(=O)C1=C(O)/C(=C\c2ccc(O)c(OCC)c2)N=C1C`, the solubility (kinetic) came out at 36.1 µg/mL (≈ 114 µM).

The compound `C=CCNC(=O)c1ccccc1SCc1c(C)noc1C` showed a kinetic solubility of over 45.4 µg/mL.

`COc1ccc(CC(=O)Nc2nc(C)cs2)cc1` had a solubility (kinetic) of 27.2 µg/mL (≈ 104 µM).

Compound `O=C(NC1CC(=O)c2sccc21)c1ccc(Cl)cc1Cl` (stereo unspecified) registered a kinetic solubility of over 48.9 µg/mL.

In turn, `CCCOc1ccc(CSC(=N)N)cc1C(=O)OC.Cl` had a solubility (kinetic) of 42.6 µg/mL.

On to `COc1ccc(S(=O)(=O)Nc2cccc(S(=O)(=O)N3CCCCC3)c2)cc1`, for which the solubility (kinetic) turned out to be 44 µg/mL (≈ 107 µM).

Compound `Cc1cc(C(=O)NC2CCCCC2C)c2ccccc2n1` (stereo unspecified) showed a kinetic solubility of over 42.4 µg/mL.

As for `CCOC(=O)Cc1cc(=O)n2[nH]c(C)c(-c3ccccc3OC)c2n1`, the solubility (kinetic) is over 51.2 µg/mL.

Compound `CCC(=O)Nc1nc2ccc([N+](=O)[O-])cc2s1` came in with a solubility (kinetic) of 0.9 µg/mL (≈ 3.58 µM).

In turn, `COc1ccc(CC(C)Nc2ccccc2F)cc1` (stereo unspecified) came in with a solubility (kinetic) of under 0.6 µg/mL.

`CC1(C2CC2)NC(=O)N(CC(=O)Nc2ccc(SC(F)F)cc2)C1=O` (stereo unspecified) had a kinetic solubility of over 55.4 µg/mL.

Compound `CC(C)c1ccc(S(=O)(=O)Nc2ccc3c(c2)OCO3)cc1` showed a kinetic solubility of 26.4 µg/mL (≈ 82.7 µM).

Compound `O=C(Nc1cccc(S(=O)(=O)NC2=NCCC2)c1)c1ccc(C(F)(F)F)cc1` showed a kinetic solubility of 7.3 µg/mL (≈ 17.7 µM).

`CC1CCC(N2CCN(c3ccc([N+](=O)[O-])cc3)CC2)CC1` (stereo unspecified) returned a solubility (kinetic) of 19.1 µg/mL (≈ 63 µM).

As to `CCC(=O)c1ccc(OCC(=O)Nc2nc(C)cs2)cc1`, the kinetic solubility came to 8.9 µg/mL (≈ 29.2 µM).

On to `CC(C)CNC(=O)c1ccc2c(c1)C(=O)N(C1CCCCC1)C2=O`, for which the solubility (kinetic) turned out to be 4.4 µg/mL (≈ 13.4 µM).

Regarding `CC1=NOC(=O)/C1=C\c1ccccc1`, the solubility (kinetic) was 24.4 µg/mL (≈ 130 µM).

Take `C/C=C/n1ccnc1CC(O)(c1ccccc1)c1ccc(C)cc1` (stereo unspecified): the kinetic solubility was 3.3 µg/mL (≈ 10.4 µM).

Take `O=C(Nc1ccc(-c2cnco2)cc1)c1ccc(F)cc1F`: the kinetic solubility came out at 0.8 µg/mL (≈ 2.66 µM).

Take `COC(=O)c1ccc(N2CCCCC2)c(N)c1`: the kinetic solubility is over 35.1 µg/mL.

Compound `O=C(Nc1cccc(Br)c1)C1CCCC1` yielded a kinetic solubility of over 40.2 µg/mL.

Turning to `O=C(NOCc1ccccc1)c1ccc(Cl)cc1`, the solubility (kinetic) came out at 11.3 µg/mL (≈ 43.2 µM).

As for `CC(C)(C)C(=O)N1CCN(c2nc3ccc(Cl)cc3s2)CC1`, the solubility (kinetic) is 2.3 µg/mL (≈ 6.81 µM).

Consider `Cc1ccc(Sc2ccc(S(=O)(=O)Nc3ccc(C(=O)O)cc3)cc2)cc1C`, for which the solubility (kinetic) was over 62 µg/mL.

`Cc1ccc(S(=O)(=O)c2ncccc2[N+](=O)[O-])cc1` had a kinetic solubility of 40.9 µg/mL (≈ 147 µM).

`CC(c1ccccc1)N1C(=O)c2cccnc2C1=O` (stereo unspecified) gave a kinetic solubility of 32.6 µg/mL (≈ 129 µM).

As for `CC(O)c1nc2ccccc2n1CCCCOc1ccccc1` (stereo unspecified), the solubility (kinetic) worked out at 43.9 µg/mL (≈ 141 µM).

Regarding `C/C(=N\OCC(=O)Nc1ccccc1C(=O)O)c1cccs1`, the solubility (kinetic) is over 47.8 µg/mL.

With `c1coc(CN2CNc3nc4ccccc4n3C2)c1`, the kinetic solubility was 35.2 µg/mL (≈ 138 µM).

Consider `Cc1cc(NC(=O)C(Cl)(Cl)Cl)no1`, for which the solubility (kinetic) amounted to 35.7 µg/mL (≈ 147 µM).

By kinetic solubility is commonly meant solubility judged after dilution from a stock solution rather than from solid.
